Assay results from patent publication US20200207759A1, “NEW PROPANAMINE DERIVATIVES FOR TREATING PAIN AND PAIN RELATED CONDITIONS” (ESTEVE PHARMACEUTICALS, S.A., priority 2017, published 2020).
Where a name gives a salt, the structure may show the parent alone.

Legend:
[1] = target: Human norepinephrine transporter (NET) (Homo sapiens, UniProt P23975); assay: Binding assay to human norepinephrine transporter (NET), [3H]-Nisoxetin; settings: human NET enriched membranes, 5 nM [3H]-Nisoxetin; read-out: Ki (nM) NET Hum
Procedure: Binding Assay to Human Norepinephrine Transporter (NET).
Human norepinephrine transporter (NET) enriched membranes (5 μg) were incubated with 5 nM of radiolabeled [3H]-Nisoxetin in assay buffer containing 50 mM Tris-HCl, 120 mM NaCl, 5 mM KCl, pH 7.4.
NSB (non specific binding) was measured by adding 1 μM. After 60 min incubation at 4° C., binding reaction was terminated by filtering through Multiscreen GF/C (Millipore) presoaked in 0.5% polyethyleneimine in Vacuum Manifold Station, followed by 3 washes with ice-cold filtration buffer containing 50 mM Tris-HCl, 0.9% NaCl, pH 7.4. Filter plates were dried at 60° C. for 1 hour and 30 μl of scintillation cocktail were added to each well before radioactivity reading.

[2] = target: Human α2δ-1 subunit of Cav2.2 calcium channel (Homo sapiens, UniProt P54289); assay: Binding assay to human α2δ-1 subunit of Cav2.2 calcium channel, [3H]-Gabapentin; settings: human α2δ-1 enriched membranes, 15 nM [3H]-Gabapentin; read-out: Ki (nM) alpha2delta Hum
Procedure: Binding Assay to Human α2δ-1 Subunit of Cav2.2 Calcium Channel.
Human α2δ-1 enriched membranes (2.5 μg) were incubated with 15 nM of radiolabeled [3H]-Gabapentin in assay buffer containing Hepes-KOH 10 mM, pH 7.4.
NSB (non specific binding) was measured by adding 10 μM pregabalin. After 60 min incubation at 27° C., binding reaction was terminated by filtering through Multiscreen GF/C (Millipore) presoaked in 0.5% polyethyleneimine in Vacuum Manifold Station, followed by 3 washes with ice-cold filtration buffer containing 50 mM Tris-HCl, pH 7.4.
Filter plates were dried at 60° C. for 1 hour and 30 μl of scintillation cocktail were added to each well before radioactivity reading.
Readings were performed in a Trilux 1450 Microbeta radioactive counter (Perkin Elmer).

Sequence of Human norepinephrine transporter (NET) (P23975 whole entry): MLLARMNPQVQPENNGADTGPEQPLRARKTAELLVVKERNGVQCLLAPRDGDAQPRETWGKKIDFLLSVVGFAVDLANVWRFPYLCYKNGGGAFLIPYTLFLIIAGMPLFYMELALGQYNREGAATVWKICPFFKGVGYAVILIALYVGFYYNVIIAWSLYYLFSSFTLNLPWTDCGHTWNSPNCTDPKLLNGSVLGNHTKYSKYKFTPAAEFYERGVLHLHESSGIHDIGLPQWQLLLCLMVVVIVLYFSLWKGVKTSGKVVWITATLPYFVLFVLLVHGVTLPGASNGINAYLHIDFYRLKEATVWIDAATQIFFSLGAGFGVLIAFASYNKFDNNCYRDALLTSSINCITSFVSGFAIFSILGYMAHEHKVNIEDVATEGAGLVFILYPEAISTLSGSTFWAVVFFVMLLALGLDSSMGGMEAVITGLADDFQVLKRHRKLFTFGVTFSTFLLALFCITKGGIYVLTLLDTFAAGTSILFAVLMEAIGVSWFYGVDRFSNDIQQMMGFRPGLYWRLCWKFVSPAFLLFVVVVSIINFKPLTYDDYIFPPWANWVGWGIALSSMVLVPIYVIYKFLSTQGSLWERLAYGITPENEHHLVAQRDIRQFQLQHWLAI
Sequence of Human α2δ-1 subunit of Cav2.2 calcium channel (P54289 25-1103): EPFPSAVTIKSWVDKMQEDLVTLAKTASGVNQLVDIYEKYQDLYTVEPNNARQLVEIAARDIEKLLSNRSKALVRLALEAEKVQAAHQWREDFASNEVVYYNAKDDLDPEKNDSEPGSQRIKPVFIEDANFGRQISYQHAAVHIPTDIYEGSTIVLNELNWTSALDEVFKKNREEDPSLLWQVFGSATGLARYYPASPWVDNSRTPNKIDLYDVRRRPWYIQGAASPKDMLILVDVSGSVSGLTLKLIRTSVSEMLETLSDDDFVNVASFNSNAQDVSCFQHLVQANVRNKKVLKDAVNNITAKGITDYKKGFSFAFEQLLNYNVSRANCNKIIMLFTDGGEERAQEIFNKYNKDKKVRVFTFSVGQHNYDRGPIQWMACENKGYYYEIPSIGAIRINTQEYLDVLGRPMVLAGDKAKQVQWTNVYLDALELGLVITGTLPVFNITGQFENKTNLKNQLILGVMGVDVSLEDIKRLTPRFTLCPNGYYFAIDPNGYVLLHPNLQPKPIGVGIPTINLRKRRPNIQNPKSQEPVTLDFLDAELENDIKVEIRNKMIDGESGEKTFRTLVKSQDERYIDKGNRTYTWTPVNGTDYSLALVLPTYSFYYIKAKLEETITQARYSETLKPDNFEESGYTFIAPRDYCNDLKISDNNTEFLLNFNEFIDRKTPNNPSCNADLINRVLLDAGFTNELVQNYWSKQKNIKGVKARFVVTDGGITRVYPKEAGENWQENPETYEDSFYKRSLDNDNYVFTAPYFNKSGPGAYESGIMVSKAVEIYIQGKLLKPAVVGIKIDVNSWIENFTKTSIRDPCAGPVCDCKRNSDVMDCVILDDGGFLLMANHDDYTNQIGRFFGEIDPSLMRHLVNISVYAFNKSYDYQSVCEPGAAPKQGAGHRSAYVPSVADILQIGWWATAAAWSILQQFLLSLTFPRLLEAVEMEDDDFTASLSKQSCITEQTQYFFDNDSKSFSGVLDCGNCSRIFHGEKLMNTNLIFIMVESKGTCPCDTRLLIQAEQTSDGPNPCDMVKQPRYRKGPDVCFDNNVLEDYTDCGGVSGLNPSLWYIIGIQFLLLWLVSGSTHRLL

Row | SMILES | Ki [1] [nM] | Ki [2] [nM]
1 | CNCC[C@H](c1ccc(F)s1)N1CCc2ncccc21 [Example 18, (R)-3-(2,3-Dihydro-1H-pyrrolo[3,2-b]pyridin-1-yl)-3-(5-fluorothiophen-2-yl)-N-methylpropan-1-amine] | 500 to 1000 | 500 to 3000
2 | CNCC[C@@H](c1ccsc1)N1CCc2nc(C)ccc21 [Example 63, (S)—N-methyl-3-(5-methyl-2,3-dihydro-1H-pyrrolo[3,2-b]pyridin-1-yl)-3-(thiophen-3-yl)propan-1-amine] | 500 to 1000 | 500 to 3000
3 | CNCC[C@@H](c1ccsc1)N1CCc2ncc(F)cc21 [Example 29, (S)-3-(6-Fluoro-2,3-dihydro-1H-pyrrolo[3,2-b]pyridin-1-yl)-N-methyl-3-(thiophen-3-yl)propan-1-amine] | 500 to 1000 | 100 to 500
4 | CNCC[C@H](c1ccsc1)N1CCc2nc(C(C)C)ccc21 [Example 46, (R)-3-(5-Isopropyl-2,3-dihydro-1H-pyrrolo[3,2-b]pyridin-1-yl)-N-methyl-3-(thiophen-3-yl)propan-1-amine] | > 1000 | 500 to 3000
5 | CNCC[C@H](c1cc(C)cs1)N1CCc2ncccc21 [Example 56, (R)-3-(2,3-Dihydro-1H-pyrrolo[3,2-b]pyridin-1-yl)-N-methyl-3-(4-methylthiophen-2-yl)propan-1-amine] | > 1000 | 500 to 3000
6 | CNCC[C@H](c1cc(C)sc1C)N1CCc2ncccc21 [Example 42, (R)-3-(2,3-Dihydro-1H-pyrrolo[3,2-b]pyridin-1-yl)-3-(2,5-dimethylthiophen-3-yl)-N-methylpropan-1-amine] | > 1000 | ≥ 3000
7 | CNCC[C@@H](c1cc(C)sc1C)N1CCc2ncccc21 [Example 43, (S)-3-(2,3-Dihydro-1H-pyrrolo[3,2-b]pyridin-1-yl)-3-(2,5-dimethylthiophen-3-yl)-N-methylpropan-1-amine] | > 1000 | ≥ 3000
8 | CN(C)CCC(c1cccs1)N1CCc2ncccc21 (stereo not shown) [Example 15, 3-(2,3-Dihydro-1H-pyrrolo[3,2-b]pyridin-1-yl)-N,N-dimethyl-3-(thiophen-2-yl)propan-1-amine] | > 1000 | ≥ 3000
9 | CNCC[C@H](c1ccsc1)N1CCc2ncccc21 [Example 22, (R)-3-(2,3-Dihydro-1H-pyrrolo[3,2-b]pyridin-1-yl)-N-methyl-3-(thiophen-3-yl)propan-1-amine] | > 1000 | 500 to 3000
10 | CNCCC(c1ccc(F)s1)N1CCc2ncccc21 (stereo not shown) [Example 6, 3-(2,3-Dihydro-1H-pyrrolo[3,2-b]pyridin-1-yl)-3-(5-fluorothiophen-2-yl)-N-methylpropan-1-amine] | 500 to 1000 | 500 to 3000
11 | CNCCC(c1cccs1)N1CC(C)(C)c2nc(C)ccc21 (stereo not shown) [Example 64, N-methyl-3-(thiophen-2-yl)-3-(3,3,5-trimethyl-2,3-dihydro-1H-pyrrolo[3,2-b]pyridin-1-yl)propan-1-amine] | 100 to 500 | < 100
12 | CNCC[C@@H](c1cccs1)N1CCc2ncccc21 [Example 16, (S)-3-(2,3-Dihydro-1H-pyrrolo[3,2-b]pyridin-1-yl)-N-methyl-3-(thiophen-2-yl)propan-1-amine] | 100 to 500 | 100 to 500
13 | CNCC[C@@H](c1cccs1)N1CCc2ncc(OC)cc21 [Example 31, (S)-3-(6-Methoxy-2,3-dihydro-1H-pyrrolo[3,2-b]pyridin-1-yl)-N-methyl-3-(thiophen-2-yl)propan-1-amine] | 500 to 1000 | ≥ 3000
14 | CNCC[C@@H](c1ccsc1)N1CC(C)(C)c2ncccc21 [Example 25, (S)-3-(3,3-Dimethyl-2,3-dihydro-1H-pyrrolo[3,2-b]pyridin-1-yl)-N-methyl-3-(thiophen-3-yl)propan-1-amine] | 100 to 500 | 500 to 3000
15 | CCc1cnc2c(c1)N([C@@H](CCNC)c1cccs1)CC2 [Example 33, (S)-3-(6-Ethyl-2,3-dihydro-1H-pyrrolo[3,2-b]pyridin-1-yl)-N-methyl-3-(thiophen-2-yl)propan-1-amine] | 500 to 1000 | ≥ 3000
16 | CNCC[C@H](c1ccsc1)N1CC(C)(C)c2nc(C)ccc21 [Example 58, (R)-N-methyl-3-(thiophen-3-yl)-3-(3,3,5-trimethyl-2,3-dihydro-1H-pyrrolo[3,2-b]pyridin-1-yl)propan-1-amine] | > 1000 | 100 to 500
17 | CNCC[C@@H](c1ccsc1)N1CC(C)(C)c2ncc(C)cc21 [Example 61, (S)-N-methyl-3-(thiophen-3-yl)-3-(3,3,6-trimethyl-2,3-dihydro-1H-pyrrolo[3,2-b]pyridin-1-yl)propan-1-amine] | > 1000 | 500 to 3000

Results, then the compound that gave them:

Row | Ki [1] [nM] | Ki [2] [nM] | SMILES
18 | > 1000 | 100 to 500 | CNCCC(c1ccsc1)N1CC(C)(C)c2nc(C#N)ccc21 (stereo not shown) [Example 104, 3,3-Dimethyl-1-(3-(methylamino)-1-(thiophen-3-yl)propyl)-2,3-dihydro-1H-pyrrolo[3,2-b]pyridine-5-carbonitrile Hydrochloride]
19 | > 1000 | < 100 | CNCCC(c1cccs1)N1CC(C)(C)c2c(C#N)cccc21 (stereo not shown) [Example 100, 3,3-Dimethyl-1-(3-(methylamino)-1-(thiophen-2-yl)propyl)indoline-4-carbonitrile]
20 | > 1000 | 100 to 500 | CNCCC(c1cccs1)N1CC(C)(C)c2ccc(C#N)cc21 (stereo not shown) [Example 92, 3,3-Dimethyl-1-(3-(methylamino)-1-(thiophen-2-yl)propyl)indoline-6-carbonitrile]
21 | 100 to 500 | ≥ 3000 | CNCC[C@@H](c1cccc(F)c1)N1CC(C)(C)c2ncccc21 [Example 84, (S)-3-(3,3-Dimethyl-2,3-dihydro-1H-pyrrolo[3,2-b]pyridin-1-yl)-3-(3-fluorophenyl)-N-methylpropan-1-amine]
22 | > 1000 | 100 to 500 | CNCCC(c1cccs1)N1CC(C)(C)c2ncc(F)cc21 (stereo not shown) [Example 66, 3-(6-Fluoro-3,3-dimethyl-2,3-dihydro-1H-pyrrolo[3,2-b]pyridin-1-yl)-N-methyl-3-(thiophen-2-yl)propan-1-amine]
23 | < 100 | 500 to 3000 | CNCCC(c1cccs1)N1CC(C)(C)c2ccccc21 (stereo not shown) [Example 93, 3-(3,3-Dimethylindolin-1-yl)-N-methyl-3-(thiophen-2-yl)propan-1-amine]
24 | 100 to 500 | 100 to 500 | CNCC[C@@H](c1ccsc1)N1CC(C)(C)c2nc(C)c(F)cc21 [Example 89, (S)-3-(6-Fluoro-3,3,5-trimethyl-2,3-dihydro-1H-pyrrolo[3,2-b]pyridin-1-yl)-N-methyl-3-(thiophen-3-yl)propan-1-amine]
25 |  | < 100 | CCNCCC(c1cccs1)N1CC(C)(C)c2ncc(C#N)cc21 (stereo not shown) [Example 101, 1-(3-(Ethylamino)-1-(thiophen-2-yl)propyl)-3,3-dimethyl-2,3-dihydro-1H-pyrrolo[3,2-b]pyridine-6-carbonitrile]
26 | 100 to 500 | ≥ 3000 | CNCC[C@H](c1cccc(F)c1)N1CCc2ncccc21 [Example 83, (R)-3-(2,3-Dihydro-1H-pyrrolo[3,2-b]pyridin-1-yl)-3-(3-fluorophenyl)-N-methylpropan-1-amine]
27 | > 1000 | < 100 | CNCCC(c1cccs1)N1CC(C)(C)c2ncc(C)cc21 (racemic) [Example 81, N-methyl-3-(thiophen-2-yl)-3-(3,3,6-trimethyl-2,3-dihydro-1H-pyrrolo[3,2-b]pyridin-1-yl)propan-1-amine]
28 | > 1000 | 100 to 500 | CNCCC(c1ccsc1)N1CC(C)(C)c2ncc(Cl)cc21 (racemic) [Example 80, 3-(6-Chloro-3,3-dimethyl-2,3-dihydro-1H-pyrrolo[3,2-b]pyridin-1-yl)-N-methyl-3-(thiophen-3-yl)propan-1-amine]
29 | 100 to 500 | < 100 | CNCCC(c1ccsc1)N1CC(C)(C)c2nc(C)c(F)cc21 (stereo not shown) [Example 71, 3-(6-Fluoro-3,3,5-trimethyl-2,3-dihydro-1H-pyrrolo[3,2-b]pyridin-1-yl)-N-methyl-3-(thiophen-3-yl)propan-1-amine]
30 | 100 to 500 | 500 to 3000 | CCc1cnc2c(c1)N([C@@H](CCNC)c1ccsc1)CC2 [Example 77, (S)-3-(6-Ethyl-2,3-dihydro-1H-pyrrolo[3,2-b]pyridin-1-yl)-N-methyl-3-(thiophen-3-yl)propan-1-amine]
31 |  | 500 to 3000 | CNCC[C@H](c1cccs1)N1CC(C)(C)c2ncc(C#N)cc21 [Example 116, (R)-3,3-dimethyl-1-(3-(methylamino)-1-(thiophen-2-yl)propyl)-2,3-dihydro-1H-pyrrolo[3,2-b]pyridine-6-carbonitrile]
32 |  | < 100 | CNCC[C@@H](c1cccs1)N1CC(C)(C)c2ncc(C#N)cc21 [Example 115, (S)-3,3-Dimethyl-1-(3-(methylamino)-1-(thiophen-2-yl)propyl)-2,3-dihydro-1H-pyrrolo[3,2-b]pyridine-6-carbonitrile]
